Legend:
[1] = system: female Lewis rats; assay: Measurement of in situ muscle contractile characteristics (isometric hindlimb force, cisatracurium block); type: in vivo, rat; conditions: for average increase in twitch peaks: 12 Hz; for average increase in twitch peaks / average increase in tetanic force: cisatracurium infusion; for average increase in tetanic force: 80 Hz; for restore force to muscles in vivo: muscles partially inhibited by a neuromuscular blocker, summary in words
Experimental: Isometric hindlimb force was measured in 12-week old female Lewis rats in the presence and absence of compound.
Rats were placed under anesthesia with isoflurane (2-4%), intubated and subsequently connected to a micro ventilator (Microvent 1, Hallowell EMC, US). Two stimulation electrodes were inserted through the skin to stimulate the sciatic nerve. A small incision was made proximal to the ankle, to expose the Achilles tendon, which was tied by cotton string, and connected to a force transducer (Fort250, World Precision Instruments) with adjustable position (Vernier control). The Achilles tendon was then cut distal to the attached cotton string. The rat was placed on a heated pad, and to prevent movement artefacts from contraction of the ankle dorsiflexors, the foot was fixated by tape on a footplate.
Muscle contractile properties were assessed by applying an electrical current (under supramaximal voltage conditions) to the nerve and recording the force generated by the muscle. The muscle was stretched until maximal force was obtained, when assessed by 2 Hz stimulation. Isometric force was measured every 30 seconds at 12 Hz (Twitch), 10 pulses, and at every 5 minutes at 80 Hz (Tetanic) for 1 second (80 pulses). This stimulation pattern was employed throughout the experiment, expect in few cases where 80 Hz stimulation was replaced by 12 Hz (10 pulses). […] When the level of neuromuscular inhibition was stable, the test article was injected i.v. at the chosen concentration. The effect of test article was assessed on its ability to increase force generated from the stimulation pattern applied. The effect was assessed in the ability to increase force per se (tetanic, 80 Hz, stimulation), and the ratio between individual twitch peaks (12 Hz stimulation). The effect was monitored for at least 1 hour after injection of test article. In addition, the time from injection of test article to maximal effect on force (both twitch and tetanic) was noted and the time for the effect to disappear (return to baseline), if possible. When appropriate the infusion of neuromuscular blocking agent was ceased, with the stimulation pattern continued, and the return of force to control levels was monitored. Animals were sacrificed by cervical dislocation while still fully sedated.

[2] = system: soleus muscles; assay: Measurement of force in an in vitro model: isolated rat nerve-muscle preparation with tubocurarine; conditions: Rattus norvegicus, 40 min; percentage of initial force restored after 40 mins with 50 µM test compound; tubocurarine (115 nM) for 90 mins; read-out: Point increase
Experimental: Recovery of force is quantified as the percentage of the force prior to tubocurarine that is recovered by the compound.
The current invention relates to compounds that inhibit CIC-1 ion channels and increase muscle excitability and thereby improve muscle function in clinical conditions where muscle activation is failing. Such conditions result in loss of contractile function of skeletal muscle, weakness and excessive fatigue. In this series of experiments the compounds were tested for their ability to restore contractile function of isolated rat muscle when the neuromuscular transmission had been compromised akin to neuromuscular disorders.
Experimentally, soleus muscles from 4-5 wk old rats were isolated with the motor nerve remaining attached. The nerve-muscle preparations were mounted in experimental setups that enabled electrical stimulation of the motor nerve. Stimulation of the motor nerve led to activation of the muscle fibres and ensuing force production that was recorded.
After mounting the nerve-muscle preparation in the experimental setup, the contractile function of the muscle was initially assessed under the control conditions (Figure 2A). […] The experimental condition mimics the failing neuromuscular transmission in a range of neuromuscular disorders. After addition of tubocurarine the contractile force declined over the next 90 mins to 10-50 % of the control force. 50 µM of the test compound was then added and the contractile force recovered despite the continued presence of tubocurarine. To quantify the ability of the compound to restore force the percentage of the initial force that was restored was determined after 40 mins of compound exposure (Figure 2B) and the point increase is reported in Table 3. Table 3: Percentage increase of initial force that was restored using compounds of the invention

[3] = target: T1, CIC-1 channels (Rattus norvegicus, UniProt P35524); assay: Electrophysiological measurement of compound inhibition of CIC-1 in rat muscle (Gm, three micro-electrodes technique); type: cell-based; conditions: reduction of Gm in fibres of whole rat soleus muscles, approx. 30°C; n = number of experiments
T1 construct: from tissue; host or cells: intact soleus muscle of 12-14-week old Wistar rats
T1 sequence (P35524 1-994): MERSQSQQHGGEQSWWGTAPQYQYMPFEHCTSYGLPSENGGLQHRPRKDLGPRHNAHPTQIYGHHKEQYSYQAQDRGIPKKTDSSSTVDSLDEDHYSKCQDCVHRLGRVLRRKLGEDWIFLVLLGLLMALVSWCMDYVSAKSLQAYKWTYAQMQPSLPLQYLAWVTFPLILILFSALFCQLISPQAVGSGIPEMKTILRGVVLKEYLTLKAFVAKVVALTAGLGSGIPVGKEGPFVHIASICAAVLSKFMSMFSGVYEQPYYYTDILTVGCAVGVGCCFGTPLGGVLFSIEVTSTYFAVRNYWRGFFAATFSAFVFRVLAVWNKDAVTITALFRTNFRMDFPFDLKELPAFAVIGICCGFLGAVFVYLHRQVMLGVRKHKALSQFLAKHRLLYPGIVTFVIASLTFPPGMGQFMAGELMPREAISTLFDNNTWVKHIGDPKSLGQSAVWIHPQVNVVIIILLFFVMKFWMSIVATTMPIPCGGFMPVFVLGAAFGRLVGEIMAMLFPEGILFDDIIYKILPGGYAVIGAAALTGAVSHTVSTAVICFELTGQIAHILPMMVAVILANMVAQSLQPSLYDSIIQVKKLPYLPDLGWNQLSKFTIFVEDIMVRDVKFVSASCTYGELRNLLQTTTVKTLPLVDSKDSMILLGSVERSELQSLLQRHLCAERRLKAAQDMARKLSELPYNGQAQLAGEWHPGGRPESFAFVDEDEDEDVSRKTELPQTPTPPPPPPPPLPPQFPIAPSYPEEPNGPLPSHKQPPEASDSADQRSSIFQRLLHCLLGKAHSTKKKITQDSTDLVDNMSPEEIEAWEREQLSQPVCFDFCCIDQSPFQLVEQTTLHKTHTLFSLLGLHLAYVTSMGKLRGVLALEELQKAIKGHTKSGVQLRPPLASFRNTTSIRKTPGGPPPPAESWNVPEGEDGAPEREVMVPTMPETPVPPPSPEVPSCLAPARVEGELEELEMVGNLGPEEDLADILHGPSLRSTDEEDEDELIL
Excerpt: Table 2: Inhibition of CIC-1 ion channel using compounds of the invention

[4] = target: T2, human CIC-1 channels (Homo sapiens, UniProt P35523); assay: Automated patch-clamp on human CIC-1 expressed in CHO cells; type: cell-based; conditions: difference in half activation voltage, compound added intracellularly vs control cell patches; positive shift = CIC-1 inhibition
T2 construct: host or cells: CHO cells constitutively expressing human ClC-1
Experimental: The investigatory goal of these experiments was to evaluate how compounds affect the open probability and current amplitude of human CIC-1 channels expressed in CHO cells. Experiments were performed using an automated patch clamp system that allowed high throughput testing of whole cell patches together with both intracellular and extracellular addition of compound.
Automated whole cell patch clamp experiments were performed with the Qpatch 16 system (Sophion Bioscience, Ballerup, Denmark) at room temperature. Data acquisition and analysis were performed in the Qassay software (ver. 5.6, Odense).
To evoke CIC-1 currents in whole cell patches, the membrane potential was initially stepped from a holding potential of -30 mV to +60 mV for 100 ms and then to various test voltages (sweeps) ranging from +120 mV to -140 mV in steps of 20 mV for 300 ms. To obtain tail currents, the membrane potential was stepped to -100 mV after each test voltage for 300 ms and then relaxed to -30 mV for 2 sec between sweeps (Figure 3). I/V relationships for whole cell instant and steady state current amplitudes were obtained by plotting average current densities at the beginning and at the end of the 300 ms step against the membrane potential (Figure 4).
In order to determine the relative overall open probability (P0), the instantaneous tail currents were normalized to the maximal tail current obtained following the most positive voltage step and plotted against the test voltage. Plots of normalized tail currents from each whole cell patch were then fitted to a Boltzmann function allowing determination of half activation voltages (V1/2, Figure 5).
For automated patch clamp experiments extracellular solutions contained: 2 mM CaCl2, 1 mM MgCl2, 10 mM HEPES, 4 mM KCI, 145 mM NaCl, 10 mM Glucose, pH adjusted to 7.4 with NaOH (2 M). Osmolality adjusted to -320 using sucrose.
Intracellular solutions contained: 80 mM CsF, 60 mM CsCI, 5/1 mM KOH/EGTA, 10 mM HEPES, 10 mM NaCl, pH adjusted to 7.2 with NaOH (2 M). Osmolality adjusted to -320 mOsm using sucrose.
Cells used in patch clamp experiments were Chinese hamster ovary cells (CHO) constitutively expressing human CIC-1 channels. The amino acid sequence encoded by the cDNA used to create this cell line was identical to the translated sequence for GenBank accession number NM_000083.2. Cells were produced by Charles River (Catalogue CT6175, Cleveland OH, USA) in a cryopreserved format. Experiments were performed on the cells directly after thawing (3 × 10^6 cells used in each experiment).
To evaluate the compound effect on CIC-1, when applied directly to the intracellular side of the cell membrane, the half activation voltage, V1/2, was determined from whole cell patches with compound added to the intracellular solution and then compared to V1/2 determined from control cell patches with only vehicle added to the intracellular solution. Additionally, the effect of extracellular added compound was evaluated by determine V1/2 and steady state current amplitudes before and after exchanging the extracellular solution to contain compound.
The difference in half activation voltage of CIC-1 channels, ΔV1/2, was determined as the difference between the cell patches treated intracellularly with compound and control cells patches and is reported in Table 4 below. A positive shift in ΔV1/2 is reflecting CIC-1 channel inhibition by the tested compound. P-values of <0.05 is considered significant. […]

T2 sequence (P35523 whole entry): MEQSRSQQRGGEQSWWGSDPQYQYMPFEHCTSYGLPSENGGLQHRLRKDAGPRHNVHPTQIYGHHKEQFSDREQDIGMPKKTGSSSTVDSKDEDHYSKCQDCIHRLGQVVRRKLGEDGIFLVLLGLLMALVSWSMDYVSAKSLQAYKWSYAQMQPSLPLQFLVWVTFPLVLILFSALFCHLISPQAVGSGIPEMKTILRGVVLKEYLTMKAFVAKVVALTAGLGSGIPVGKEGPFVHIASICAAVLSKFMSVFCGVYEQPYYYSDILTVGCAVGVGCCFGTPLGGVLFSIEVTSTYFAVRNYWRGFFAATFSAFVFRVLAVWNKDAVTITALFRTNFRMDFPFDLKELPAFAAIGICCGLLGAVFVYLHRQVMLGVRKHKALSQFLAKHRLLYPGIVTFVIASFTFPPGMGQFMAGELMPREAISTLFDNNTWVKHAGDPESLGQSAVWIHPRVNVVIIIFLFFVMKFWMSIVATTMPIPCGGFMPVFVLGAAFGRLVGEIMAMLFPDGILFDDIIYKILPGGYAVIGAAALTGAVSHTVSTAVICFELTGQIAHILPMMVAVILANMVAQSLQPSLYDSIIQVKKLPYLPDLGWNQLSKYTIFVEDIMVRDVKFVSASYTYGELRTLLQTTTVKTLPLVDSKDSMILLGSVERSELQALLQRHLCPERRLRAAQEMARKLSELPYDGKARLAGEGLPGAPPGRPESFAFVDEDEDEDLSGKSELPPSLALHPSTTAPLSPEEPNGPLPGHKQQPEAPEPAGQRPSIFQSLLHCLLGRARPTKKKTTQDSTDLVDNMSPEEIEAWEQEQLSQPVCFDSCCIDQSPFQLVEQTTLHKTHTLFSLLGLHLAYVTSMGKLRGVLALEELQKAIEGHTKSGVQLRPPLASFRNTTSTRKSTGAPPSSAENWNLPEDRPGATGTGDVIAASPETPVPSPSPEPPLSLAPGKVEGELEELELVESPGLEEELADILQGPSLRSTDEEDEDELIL

| EC50 [3] | ΔV1/2 [4] | SMILES | average increase in twitch peaks ([1]; 21 mg/kg i.v.) | average increase in tetanic force ([1]; 21 mg/kg i.v.) | restore force to muscles in vivo [1] | activation at 50 µM [2] | average increase in twitch peaks ([1]; 20 mg/kg i.v.) | average increase in tetanic force ([1]; 20 mg/kg i.v.) |
| --- | --- | --- | --- | --- | --- | --- | --- | --- |
| 12 ± 3.2 µM |  | C[C@@H](F)[C@H](Oc1ccc(Br)cc1)C(=O)O [Compound A-94, (2R,3R)-2-(4-bromophenoxy)-3-fluorobutanoic acid] | 11.5% | 34.8% | can restore force | 31% |  |  |
| 7.2 ± 2.8 µM |  | C[C@H](Oc1ccc(Br)cc1F)C(=O)O [Compound A-31, (2S)-2-(4-bromo-2-fluorophenoxy)propanoi c acid] |  |  | can restore force | 42% | 7.3% | 29.8% |
| 8.7 ± 1.4 µM | 10.3 mV | O=C(O)[C@@H](Oc1ccc(Br)cc1F)C1CC1 [Compound A-89, (2S)-2-(4-bromo-2-fluorophenoxy)-2-cyclopropylacetic acid] |  |  |  | 33% |  |  |
| 4 ± 0.1 µM | 10.4 mV | COC[C@H](Oc1ccc(Br)cc1Br)C(=O)O [Compound A-74, (2S)-2-(2,4-dibromophenoxy)-3-methoxypropanoic acid] |  |  |  | 42% |  |  |

Reference: patent publication EP3723745B1, “PHENOXY ACIDS FOR THE TREATMENT OF NEUROMUSCULAR DISORDERS” (NMD Pharma A/S, priority 2017, dated 2019)
